Source: US8207330B2, “Two-photon absorption material and application thereof” (Ricoh Company, Ltd., priority 2008, dated 2012)

Experiment: Two-photon absorption cross-sectional area, Z scan method, Examples B
Format: physicochemical
Settings: tetrahydrofuran solution, femtosecond laser, 780 nm to 960 nm (710 nm to 990 nm)
Protocol: Each of Compounds (1), (2), (57), (58), (59), (60), (3), (4), (61), (62), (25), (26), (63), (64), (65), (66), (45), (67), (68), (69), (70), (71), (72), (5), (9), (13), (19), (27), (31), (32), (34), (36), (39), (44), (53) and (55) was dissolved in tetrahydrofuran, and the resultant tetrahydrofuran solution was measured for its two-photon absorption cross-sectional area according to the below-described evaluation method therefor.
This measurement was performed under the following conditions:
Sample concentration: 10^−2 mol to 10^−5 mol (this range covering optimal concentrations of the samples (at which measurements are easily performed));
Light path length of cell: 10 mm (corresponding to the inner diameter of cuvette);
Light: variable femtosecond laser having a wavelength of 710 nm to 990 nm; and
Light power: 10 mW to 800 mW.
The following compound (73) was dissolved in tetrahydrofuran, and the resultant solution was measured for its two-photon absorption cross-sectional area according to the below-described evaluation method therefor.
The following compound (74) was dissolved in tetrahydrofuran, and the resultant solution was measured for its two-photon absorption cross-sectional area according to the below-described evaluation method therefor.
[drawing 68] [Method for Measuring Two-Photon Absorption Cross-Sectional Area]
FIG. 8 schematically illustrates a system of the method.
Measuring light source: femtosecond titanium sapphire laser
Repetition frequency: 80 MHz
Measuring method: Z scan method
Inner diameter of cuvette: 10 mm
Light power for measurement: about 500 mW
Collection diameter: 40 μm to 50 μm
A quartz cell filled with each sample solution was placed in a light path through which a focused laser beam was passed. Then, the cell was moved along the light path for Z-scan measurement.
The sample solution was measured for its transmittance, and the thus-obtained value and the following theoretical equation (I) were used to determine a nonlinear absorption coefficient of the sample. T=[ln(1+I0L0β)]/I0L0β (I)
where T denotes a transmittance (%), I0 denotes an excited light density [GW/cm^2], L0 denotes a sample cell length [cm], and β denotes a nonlinear absorption coefficient [cm/GW].
The thus-determined nonlinear absorption coefficient and the following equation (ii) were used to calculate a two-photon absorption cross-sectional area σ. Note that the unit of σ is GM (1 GM=1×10^−50 cm^4·s·photon^−1). σ=1,000×hvβ/[…] (ii)
where h denotes the Planck's constant [J·s], v denotes a frequency of an incident laser beam [s^−1], NA denotes the Avogadoro's number, and C denotes a concentration of a solution [mol/L].

Structure (SMILES) | Two-photon absorption cross-sectional area
CC1=C(C)c2nc1c(-c1ccc(C#N)cc1)c1[nH]c(c(C)c1C)c(-c1ccc(/C=C/c3ccc(N(c4ccccc4)c4ccc(C)cc4)cc3)cc1)c1nc(c(-c3ccc(C#N)cc3)c3[nH]c(c(C)c3C)c2-c2ccc(/C=C/c3ccc(N(c4ccccc4)c4ccc(C)cc4)cc3)cc2)C(C)=C1C [(5)] | 980 GM
CN(C)c1ccc(/C=C/C2=c3ccc4[n]3[Zn][n]3c(ccc3C(c3ccccn3)=C3C=CC2=N3)C(c2ccc(/C=C/c3ccc(N(c5ccccc5)c5ccccc5)cc3)cc2)=C2C=CC(=N2)C=4c2ccccn2)cc1 [(13)] | 1,030 GM
CCCCCCc1ccc(N(c2ccc(-c3c4nc(c(-c5c(C)cc(C)cc5C)c5[nH]c(cc6nc(c(-c7c(C)cc(C)cc7C)c7[nH]c3c(CC)c7C)C(C)=C6CC)c(CC)c5C)C(C)=C4CC)cc2)c2ccc(-c3c4nc(c(-c5c(C)cc(C)cc5C)c5[nH]c(cc6nc(c(-c7c(C)cc(C)cc7C)c7[nH]c3c(CC)c7C)C(C)=C6CC)c(CC)c5C)C(C)=C4CC)cc2)cc1 [(25)] | 860 GM
CCCCCCc1ccc(N(c2ccc(C3=C4N=C(C(C)=C4CC)C(c4c(C)cc(C)cc4C)=c4c(C)c(CC)c5[n]4[Zn][n]4c(c(C)c(CC)c43)C(c3c(C)cc(C)cc3C)=C3N=C(C=5)C(CC)=C3C)cc2)c2ccc(C3=c4c(CC)c(C)c5[n]4[Zn][n]4c(c(CC)c(C)c4C(c4c(C)cc(C)cc4C)=C4N=C3C(CC)=C4C)C=C3N=C(C(C)=C3CC)C=5c3c(C)cc(C)cc3C)cc2)cc1 [(26)] | 1,120 GM
CCC1=C(CC)c2nc1c(Br)c1[nH]c(c(CC)c1CC)c(-c1ccc([N+](=O)[O-])cc1)c1nc(c(-c3ccc4c(c3)C(C)(C)c3cc(-c5c6nc(c(-c7ccc([N+](=O)[O-])cc7)c7[nH]c(c(Br)c8nc(c(-c9ccc([N+](=O)[O-])cc9)c9[nH]c5c(CC)c9CC)C(CC)=C8CC)c(CC)c7CC)C(CC)=C6CC)ccc3-4)c3[nH]c(c(CC)c3CC)c2-c2ccc([N+](=O)[O-])cc2)C(CC)=C1CC [(27)] | 810 GM
CCCCCCc1ccc(N(c2ccc(C3=C4C=CC(=N4)C(c4ccccc4C)=c4ccc5[n]4[Pd][n]4c3ccc4C(c3ccccc3C)=C3C=CC(=N3)C=5c3ccc(/C=C/c4ccc(N(c5ccccc5)c5ccccc5)cc4)cc3)cc2)c2ccc(C3=c4ccc5[n]4[Pd][n]4c(ccc4C(c4ccccc4C)=C4C=CC3=N4)C=C3C=CC(=N3)C=5c3ccccc3C)cc2)cc1 [(31)] | 890 GM
CCC1=C(C)C2=NC1=Cc1c(CC)c(C)c3[n]1[Ni][n]1c(c(C)c(CC)c1=C(c1ccc(N(c4ccccc4)c4ccc(C5=C6N=C(C(C)=C6CC)C(c6ccncc6)=c6c(C)c(CC)c7[n]6[Ni][n]6c(c(C)c(CC)c65)C(c5ccncc5)=C5N=C(C(CC)=C5C)C=7/C=C/c5ccc(N(c6ccccc6)c6ccccc6)cc5)cc4)cc1)C1=NC(=C3c3ccncc3)C(C)=C1CC)=C2c1ccncc1 [(32)] | 900 GM
CCCCC(CC)COc1ccc(N(c2ccc(C3=C4N=C(C(C)=C4CC)C(c4ccccc4C(=O)OC)=c4c(C)c(CC)c5[n]4[Zn][n]4c(c(C)c(CC)c43)C(c3ccccc3C(=O)OC)=C3N=C(C=5)C(CC)=C3C)cc2)c2ccc(C3=c4c(CC)c(C)c5[n]4[Zn][n]4c(c(CC)c(C)c4C(c4ccccc4C(=O)OC)=C4N=C3C(CC)=C4C)C=C3N=C(C(C)=C3CC)C=5c3ccccc3C(=O)OC)cc2)cc1 (stereo not shown) [(34)] | 1,010 GM
CCCCCCc1ccc(N(c2ccc(C3=C4C(C(=O)OC)=CC5=[N+]4[Co@]46[n]7c(cc(C(=O)OC)c73)C(c3ccc([N+](=O)[O-])cc3)=C3C=C(C(=O)OC)C(=[N+]34)C=c3c(C(=O)OC)cc([n]36)=C5c3ccc([N+](=O)[O-])cc3)cc2)c2ccc(C3=c4c(C(=O)OC)cc5[n]4[Co@]46[n]7c(cc(C(=O)OC)c7C=C7C(C(=O)OC)=CC(=[N+]74)C=5c4ccc([N+](=O)[O-])cc4)C(c4ccc([N+](=O)[O-])cc4)=C4C=C(C(=O)OC)C3=[N+]46)cc2)cc1 [(36)] | 860 GM
CCC1=C(C)c2nc1cc1[nH]c(c(C)c1CC)c(-c1ccccc1C(F)(F)F)c1nc(c(-c3ccc4c(c3)C(C)(C)c3cc(-c5c6nc(c(-c7ccccc7C(F)(F)F)c7[nH]c(cc8nc(c(-c9ccccc9C(F)(F)F)c9[nH]c5c(CC)c9C)C(C)=C8CC)c(CC)c7C)C(C)=C6CC)ccc3-4)c3[nH]c(c(C)c3CC)c2-c2ccccc2C(F)(F)F)C(CC)=C1C [(39)] | 890 GM
CC1=C(C)C2=C(I)c3c(C)c(C)c4[n]3[Zn][n]3c(cc(C)c3=C(c3ccccc3C(F)(F)F)C1=N2)=C(c1ccc2c(c1)C(C)(C)c1cc(C3=C5N=C(C(C)=C5C)C(c5ccccc5C(F)(F)F)=c5c(C)c(C)c6[n]5[Zn][n]5c3c(C)c(C)c5C(c3ccccc3C(F)(F)F)=C3N=C(C(C)=C3C)C=6I)ccc1-2)C1=NC(=C4c2ccccc2C(F)(F)F)C(C)=C1C [(44)] | 1,000 GM
CCCCCCC1(CCCCCC)c2cc(C3=C4C=CC(=N4)C(c4cc(OC)c(OC)c(OC)c4)=c4ccc5[n]4[Zn][n]4c(ccc43)C(c3cc(OC)c(OC)c(OC)c3)=C3C=CC(=N3)C=5/C=C/c3ccc(N(c4ccccc4)c4ccccc4)cc3)ccc2-c2ccc(C3=c4ccc5[n]4[Zn][n]4c(ccc4C(c4cc(OC)c(OC)c(OC)c4)=C4C=CC3=N4)C=C3C=CC(=N3)C=5c3cc(OC)c(OC)c(OC)c3)cc21 [(45)] | 1,200 GM
CCC1=C(C)c2nc1c(Br)c1[nH]c(c(C)c1CC)c(Br)c1nc(c(-c3ccc(N(c4ccccc4)c4ccc(-c5c6nc(c(-c7ccccc7C(F)(F)F)c7[nH]c(c(Br)c8nc(c(Br)c9[nH]c5c(CC)c9C)C(C)=C8CC)c(CC)c7C)C(C)=C6CC)cc4)cc3)c3[nH]c(c(C)c3CC)c2-c2ccccc2C(F)(F)F)C(CC)=C1C [(53)] | 840 GM
CCC1=C(C)c2cc3[nH]c(c(CC)c3C)c(-c3ccc(N(c4ccccc4)c4ccc(-c5c6nc(cc7[nH]c(cc8nc(c(-c9ccc(-c%10ccccn%10)nc9)c9[nH]c5c(CC)c9C)C(C)=C8CC)c(CC)c7C)C(C)=C6CC)cc4)cc3)c3nc(c(-c4ccc(-c5ccccn5)nc4)c4[nH]c(cc1n2)c(CC)c4C)C(C)=C3CC [(55)] | 850 GM
CCC1=C(C)C2=C(c3cc(OC)c(OC)c(OC)c3)c3c(C)c(CC)c4[n]3[Cu][n]3c(c(C)c(CC)c3=C(c3ccc(/C=C/c5ccc(N(c6ccc(C)cc6)c6ccc(C)cc6)cc5)cc3)C1=N2)=C(c1cc(OC)c(OC)c(OC)c1)C1=NC(=C4c2ccc(/C=C/c3ccc(N(c4ccc(C)cc4)c4ccc(C)cc4)cc3)cc2)C(CC)=C1C [(62)] | 840 GM
CCCCCCc1ccc(N(c2ccc(C3=C4N=C(C(C)=C4CC)C(c4c(C)cc(C)cc4C)=c4c(C)c(CC)c5[n]4[Ni][n]4c(c(C)c(CC)c43)C(c3c(C)cc(C)cc3C)=C3N=C(C=5)C(CC)=C3C)cc2)c2ccc(C3=c4c(CC)c(C)c5[n]4[Ni][n]4c(c(CC)c(C)c4C(c4c(C)cc(C)cc4C)=C4N=C3C(CC)=C4C)C=C3N=C(C(C)=C3CC)C=5c3c(C)cc(C)cc3C)cc2)cc1 [(63)] | 900 GM
CCCCCCc1ccc(N(c2ccc(C3=C4N=C(C(C)=C4CC)C(c4c(C)cc(C)cc4C)=c4c(C)c(CC)c5[n]4[Pd][n]4c(c(C)c(CC)c43)C(c3c(C)cc(C)cc3C)=C3N=C(C=5)C(CC)=C3C)cc2)c2ccc(C3=c4c(CC)c(C)c5[n]4[Pd][n]4c(c(CC)c(C)c4C(c4c(C)cc(C)cc4C)=C4N=C3C(CC)=C4C)C=C3N=C(C(C)=C3CC)C=5c3c(C)cc(C)cc3C)cc2)cc1 [(64)] | 890 GM
CCCCCCc1ccc(N(c2ccc(C3=C4N=C(C(C)=C4CC)C(c4c(C)cc(C)cc4C)=c4c(C)c(CC)c5[n]4[Co][n]4c(c(C)c(CC)c43)C(c3c(C)cc(C)cc3C)=C3N=C(C=5)C(CC)=C3C)cc2)c2ccc(C3=c4c(CC)c(C)c5[n]4[Co][n]4c(c(CC)c(C)c4C(c4c(C)cc(C)cc4C)=C4N=C3C(CC)=C4C)C=C3N=C(C(C)=C3CC)C=5c3c(C)cc(C)cc3C)cc2)cc1 [(65)] | 810 GM
CCCCCCc1ccc(N(c2ccc(C3=C4N=C(C(C)=C4CC)C(c4c(C)cc(C)cc4C)=c4c(C)c(CC)c5[n]4[Cu][n]4c(c(C)c(CC)c43)C(c3c(C)cc(C)cc3C)=C3N=C(C=5)C(CC)=C3C)cc2)c2ccc(C3=c4c(CC)c(C)c5[n]4[Cu][n]4c(c(CC)c(C)c4C(c4c(C)cc(C)cc4C)=C4N=C3C(CC)=C4C)C=C3N=C(C(C)=C3CC)C=5c3c(C)cc(C)cc3C)cc2)cc1 [(66)] | 820 GM
